Experimental findings from patent publication US20160046618A1, “Cyclopropyl Fused Thiazin-2-Amine Compounds as Beta-Secretase Inhibitors and Methods of Use” (AMGEN INC., priority 2014, published 2016) are described below.

A value given as a limit tells only on which side of the number the result lay.

In assay [1] the target is human recombinant BACE2 (Homo sapiens (Human), UniProt Q9Y5Z0). Briefly: In vitro enzymatic BACE2 FRET assay. It counts as biochemical. The conditions noted are these: read-out: IC50 IP (μM) BACE2 enzyme. An outline of the steps:
(§1)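 Protease purified by Ni-NTA chromatography; start with FRET substrate (50 nM); incubate 1 h; quench with Tris to neutral pH; read fluorescence ex 488 / em 590 nm.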

Assay [2] addresses Recombinant Cat D (Homo sapiens (Human), UniProt P07339). Briefly: In vitro enzymatic Cathepsin D (Cat D) FRET assay. The assay is classed as biochemical. The conditions noted are these: read-out: IC50 IP (μM) CatD. An outline of the steps: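 Cleavage of a 20 nM fluorophore/quencher peptide by CHO-expressed recombinant Cat D proceeded for one hour at pH 3.5 (0.05 M citrate, 5 mM CHAPS, 10% DMSO final). Tris addition neutralized the pH to end the reaction. Fluorescence was then measured (ex 500 nm/em 580 nm).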

Assay [3] relates to Aβ40 in conditioned medium of cells stably expressing Amyloid Precursor Protein (APP). Put plainly: In vitro BACE-1 cell-based assay (Aβ40 sandwich ELISA). The note with it: read-out: IC50 IP (μM) BACE1 cell. In a few lines: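 APP-expressing cells treated 24 h at 37 °C with compound in 10-point dose response (top 100 μM or 10 μM, 0.1% DMSO final). Secreted Aβ40 in conditioned medium quantified by sandwich ELISA (pAb40 capture, biotinylated 6E10 detection, time-resolved europium fluorescence); IC50 from percent inhibition versus concentration.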
For orientation: In an ELISA, binding on a coated surface is turned into a signal by an enzyme label.

Assay [4] addresses human recombinant BACE1 (Homo sapiens (Human), UniProt P56817). Put plainly: In vitro enzymatic BACE1 FRET assay. It counts as biochemical. The conditions noted are these: read-out: IC50 IP (μM) BACE1 enzyme. An outline of the steps: as §1

Sequence of Recombinant Cat D (P07339 65-412): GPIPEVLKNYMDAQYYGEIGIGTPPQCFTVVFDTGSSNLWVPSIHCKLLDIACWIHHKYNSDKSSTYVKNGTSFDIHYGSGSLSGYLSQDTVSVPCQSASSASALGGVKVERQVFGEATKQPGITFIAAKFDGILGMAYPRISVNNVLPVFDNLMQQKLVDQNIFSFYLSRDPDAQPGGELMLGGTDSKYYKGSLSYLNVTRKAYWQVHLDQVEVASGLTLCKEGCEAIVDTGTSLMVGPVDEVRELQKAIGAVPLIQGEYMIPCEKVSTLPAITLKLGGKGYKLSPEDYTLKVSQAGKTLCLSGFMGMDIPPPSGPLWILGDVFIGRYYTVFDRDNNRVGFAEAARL
Sequence of human recombinant BACE2 (Q9Y5Z0 63-518): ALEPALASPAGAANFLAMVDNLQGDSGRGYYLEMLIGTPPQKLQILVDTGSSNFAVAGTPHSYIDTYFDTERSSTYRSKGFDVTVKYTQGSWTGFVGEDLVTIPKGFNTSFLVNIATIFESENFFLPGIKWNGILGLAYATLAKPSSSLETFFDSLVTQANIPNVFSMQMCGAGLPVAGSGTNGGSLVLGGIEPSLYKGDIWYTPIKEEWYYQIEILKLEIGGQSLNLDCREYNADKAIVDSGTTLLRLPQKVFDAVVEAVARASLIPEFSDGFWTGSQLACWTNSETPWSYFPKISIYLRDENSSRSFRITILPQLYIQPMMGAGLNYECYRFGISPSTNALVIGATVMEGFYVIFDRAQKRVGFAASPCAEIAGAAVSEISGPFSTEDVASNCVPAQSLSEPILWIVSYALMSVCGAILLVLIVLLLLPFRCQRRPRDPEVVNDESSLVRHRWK
Sequence of human recombinant BACE1 (P56817 46-501): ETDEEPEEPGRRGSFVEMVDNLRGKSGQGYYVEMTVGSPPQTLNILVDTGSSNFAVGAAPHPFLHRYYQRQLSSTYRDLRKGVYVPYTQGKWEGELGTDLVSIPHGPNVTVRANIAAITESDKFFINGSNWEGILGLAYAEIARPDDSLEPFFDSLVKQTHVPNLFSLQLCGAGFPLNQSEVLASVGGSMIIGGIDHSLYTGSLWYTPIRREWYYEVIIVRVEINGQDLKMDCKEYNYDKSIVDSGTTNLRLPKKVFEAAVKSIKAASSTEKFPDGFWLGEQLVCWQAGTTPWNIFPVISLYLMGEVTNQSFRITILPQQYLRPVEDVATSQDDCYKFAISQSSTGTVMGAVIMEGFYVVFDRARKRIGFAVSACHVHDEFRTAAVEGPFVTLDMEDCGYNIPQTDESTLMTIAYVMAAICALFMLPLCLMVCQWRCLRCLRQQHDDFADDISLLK

A word on the IC50: it is the concentration that inhibits the measured activity by half. For `C[C@]1(c2cc(NC(=O)c3cnc(OCC(F)(F)F)cn3)ccc2F)N=C(N)S[C@@]2(C(=O)N3CCCC3)C[C@H]21` [Example 634, N-(3-((1S,5S,6S)-3-amino-5-methyl-1-(1-pyrrolidinylcarbonyl)-2-thia-4-azabicyclo[4.1.0]hept-3-en-5-yl)-4-fluorophenyl)-5-(2,2,2-trifluoroethoxy)-2-pyrazinecarboxamide], the IC50 came to 0.00951 µM in assay [1], 660 µM in assay [2], 0.000616 µM in assay [3] and 0.000758 µM in assay [4].

As for `COCCOc1cnc2c(Nc3ccc(F)c([C@@]4(CF)N=C(N)S[C@@]5(CF)C[C@H]54)c3)nccc2n1` [Example 635, N-(3-((1S,5S,6S)-3-amino-1,5-bis(fluoromethyl)-2-thia-4-azabicyclo[4.1.0]hept-3-en-5-yl)-4-fluorophenyl)-2-(2-methoxyethoxy)pyrido[3,4-b]pyrazin-5-amine], the IC50 in assay [1] is 0.192 µM; in assay [2], over 400 µM; in assay [3], 0.0208 µM; in assay [4], 0.00832 µM.

Turning to `C[C@]1(c2cc(Nc3ncnc4cc(F)cnc34)cc(F)c2F)N=C(N)S[C@H]2C[C@H]21` [Example 636, (1S,5S,6S)-5-(2,3-difluoro-5-((7-fluoropyrido[3,2-d]pyrimidin-4-yl)amino)phenyl)-5-methyl-2-thia-4-azabicyclo[4.1.0]hept-3-en-3-amine], the IC50 in assay [1] is 0.0298 µM; in assay [2], 996 µM; in assay [3] it was 0.411 µM; in assay [4], 0.0918 µM.

Consider `C[C@]1(c2cc(NC(=O)c3ccc(Cl)cn3)cnc2F)N=C(N)S[C@H]2C[C@H]21` [Example 637, N-(5-((1S,5S,6S)-3-Amino-5-methyl-2-thia-4-azabicyclo[4.1.0]hept-3-en-5-yl)-6-fluoropyridin-3-yl)-5-chloropicolinamide], for which the IC50 is 0.00261 µM in assay [1], over 400 µM in assay [2], 0.0121 µM in assay [3] and 0.0213 µM in assay [4].

Take `C[C@]1(c2cc(Nc3nccc4[nH]c(=O)cnc34)cnc2F)N=C(N)S[C@H]2C[C@H]21` [Example 638, 5-((5-((1S,5S,6S)-3-amino-5-methyl-2-thia-4-azabicyclo[4.1.0]hept-3-en-5-yl)-6-fluoropyridin-3-yl)amino)pyrido[3,4-b]pyrazin-2(1H)-one]: the IC50 in assay [1] was 0.0314 µM; in assay [2], over 400 µM; in assay [3], 0.0517 µM; in assay [4], 0.0625 µM.

As for `C#CCOc1cnc2c(Nc3cnc(F)c([C@@]4(C)N=C(N)S[C@H]5C[C@H]54)c3)nccc2n1` [Example 639, (1S,5S,6S)-5-(2-fluoro-5-((2-(prop-2-yn-1-yloxy)pyrido[3,4-b]pyrazin-5-yl)amino)pyridin-3-yl)-5-methyl-2-thia-4-azabicyclo[4.1.0]hept-3-en-3-amine], the IC50 in assay [1] came out at 0.0401 µM; in assay [2], 381 µM; in assay [3], 0.00213 µM; in assay [4], 0.00157 µM.

For the compound `C[C@]1(c2cc(Nc3nccc4cc(C#N)cnc34)cnc2F)N=C(N)S[C@H]2C[C@H]21` [Example 641, 8-((5-((1S,5S,6S)-3-amino-5-methyl-2-thia-4-azabicyclo[4.1.0]hept-3-en-5-yl)-6-fluoro-3-pyridinyl)amino)-1,7-naphthyridine-3-carbonitrile], the IC50 in assay [1] worked out at 0.00815 µM; in assay [2] it was 1430 µM; in assay [3], 0.00799 µM; in assay [4], 0.0188 µM.

Regarding `Cc1cc(OCc2ncco2)cnc1C(=O)Nc1ccc(F)c([C@@]2(C)N=C(N)S[C@@]3(C(F)F)C[C@@H]23)c1` [Example 642, N-(3-((1S,5S,6S)-3-amino-1-(difluoromethyl)-5-methyl-2-thia-4-azabicyclo[4.1.0]hept-3-en-5-yl)-4-fluorophenyl)-3-methyl-5-(1,3-oxazol-2-ylmethoxy)-2-pyridinecarboxamide], the IC50 was 0.114 µM in assay [1], 434 µM in assay [2], 0.0351 µM in assay [3] and 0.00642 µM in assay [4].

Turning to `Cc1cc(OCc2ncco2)cnc1C(=O)Nc1cc(F)c(F)c([C@@]2(C)N=C(N)S[C@@]3(C(F)F)C[C@@H]23)c1` [Example 643, N-(3-((1S,5S,6S)-3-amino-1-(difluoromethyl)-5-methyl-2-thia-4-azabicyclo[4.1.0]hept-3-en-5-yl)-4,5-difluorophenyl)-3-methyl-5-(1,3-oxazol-2-ylmethoxy)-2-pyridinecarboxamide], the IC50 turned out to be 0.134 µM in assay [1], 751 µM in assay [2], 0.0328 µM in assay [3] and 0.00246 µM in assay [4].

Consider `COC[C@]12C[C@H]1[C@@](C)(c1cc(NC(=O)c3ncc(OCc4ncco4)cc3C)ccc1F)N=C(N)S2` [Example 644, N-(3-((1S,5S,6S)-3-amino-1-(methoxymethyl)-5-methyl-2-thia-4-azabicyclo[4.1.0]hept-3-en-5-yl)-4-fluorophenyl)-3-methyl-5-(1,3-oxazol-2-ylmethoxy)-2-pyridinecarboxamide], for which the IC50 in assay [1] was 0.207 µM; in assay [2] it was over 400 µM; in assay [3] it was 0.0137 µM; in assay [4], 0.014 µM.

Consider `COC[C@]12C[C@H]1[C@@](C)(c1cc(NC(=O)c3ncc(OCc4ncco4)cc3C)cc(F)c1F)N=C(N)S2` [Example 646, N-(3-((1S,5S,6S)-3-amino-1-(methoxymethyl)-5-methyl-2-thia-4-azabicyclo[4.1.0]hept-3-en-5-yl)-4,5-difluorophenyl)-3-methyl-5-(1,3-oxazol-2-ylmethoxy)-2-pyridinecarboxamide], for which the IC50 came to 0.211 µM in assay [1], 865 µM in assay [2], 0.013 µM in assay [3] and 0.00656 µM in assay [4].

On to `C#C[C@H](C)Oc1cnc(C(=O)Nc2cc(F)c(F)c([C@@]3(C)N=C(N)S[C@@]4(C(F)F)C[C@@H]34)c2)c(C)c1` [Example 647, N-(3-((1S,5S,6S)-3-amino-1-(difluoromethyl)-5-methyl-2-thia-4-azabicyclo[4.1.0]hept-3-en-5-yl)-4,5-difluorophenyl)-3-methyl-5-(((1S)-1-methyl-2-propyn-1-yl)oxy)-2-pyridinecarboxamide], for which the IC50 in assay [1] amounted to 0.342 µM; in assay [2], 389 µM; in assay [3] it was 0.259 µM; in assay [4], 0.0236 µM.

Regarding `C#C[C@H](C)Oc1cnc(C(=O)Nc2ccc(F)c([C@@]3(C)N=C(N)S[C@@]4(COC)C[C@H]43)c2)c(C)c1` [Example 649, N-(3-((1S,5S,6S)-3-amino-1-(methoxymethyl)-5-methyl-2-thia-4-azabicyclo[4.1.0]hept-3-en-5-yl)-4-fluorophenyl)-3-methyl-5-(((1S)-1-methyl-2-propyn-1-yl)oxy)-2-pyridinecarboxamide], the IC50 in assay [1] stood at 0.284 µM; in assay [2], 803 µM; in assay [3] it was 0.131 µM; in assay [4], 0.0646 µM.

Take `C#C[C@H](C)Oc1cnc(C(=O)Nc2cc(F)c(F)c([C@@]3(C)N=C(N)S[C@@]4(COC)C[C@H]43)c2)c(C)c1` [Example 650, N-(3-((1S,5S,6S)-3-amino-1-(methoxymethyl)-5-methyl-2-thia-4-azabicyclo[4.1.0]hept-3-en-5-yl)-4,5-difluorophenyl)-3-methyl-5-(((1S)-1-methyl-2-propyn-1-yl)oxy)-2-pyridinecarboxamide]: the IC50 in assay [1] was 0.556 µM; in assay [2], 777 µM; in assay [3], 0.344 µM; in assay [4] it was 0.0389 µM.

Consider `C#C[C@H](C)Oc1cnc(C(=O)Nc2ccc(F)c([C@@]3(C)N=C(N)S[C@@]4(CF)C[C@H]43)c2)c(C)c1` [Example 651, N-(3-((1S,5S,6S)-3-amino-1-(fluoromethyl)-5-methyl-2-thia-4-azabicyclo[4.1.0]hept-3-en-5-yl)-4-fluorophenyl)-3-methyl-5-(((1S)-1-methyl-2-propyn-1-yl)oxy)-2-pyridinecarboxamide], for which the IC50 in assay [1] turned out to be 0.397 µM; in assay [2], 1030 µM; in assay [3] it was 0.139 µM; in assay [4], 0.0589 µM.

For the compound `Cc1cc(OCc2ncco2)cnc1C(=O)Nc1ccc(F)c([C@@]2(C)N=C(N)S[C@@]3(CF)C[C@H]32)c1` [Example 652, N-(3-((1S,5S,6S)-3-amino-1-(fluoromethyl)-5-methyl-2-thia-4-azabicyclo[4.1.0]hept-3-en-5-yl)-4-fluorophenyl)-3-methyl-5-(1,3-oxazol-2-ylmethoxy)-2-pyridinecarboxamide], the IC50 in assay [1] is 0.142 µM; in assay [2], over 400 µM; in assay [3], 0.0256 µM; in assay [4], 0.00756 µM.

Take `C#CCOc1cnc2c(Nc3cnc(F)c([C@@]4(C)N=C(N)S[C@@]5(C(F)F)C[C@@H]45)c3)nccc2n1` [Example 653, N-(5-((1S,5S,6S)-3-amino-1-(difluoromethyl)-5-methyl-2-thia-4-azabicyclo[4.1.0]hept-3-en-5-yl)-6-fluoro-3-pyridinyl)-2-(2-propyn-1-yloxy)pyrido[3,4-b]pyrazin-5-amine]: the IC50 in assay [1] came to 0.0192 µM; in assay [2], 260 µM; in assay [3] it was 0.00151 µM; in assay [4], 0.000544 µM.
